PubChem BioAssay (NCI)
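The compound was tested at five concentrations on cells cultured in 96-well plates, with a 48-hour exposure period. TGI: concentration producing complete growth inhibition.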

Columns and labels:
Assay in all cases: NCI tumour cell line growth inhibition, 48 h
CAKI-1 renal = tested on: CAKI-1 renal
786-0 renal = tested on: 786-0 renal
SK-MEL-28 melanoma = tested on: SK-MEL-28 melanoma
A498 renal = tested on: A498 renal
OVCAR-3 ovarian = tested on: OVCAR-3 ovarian
RPMI-8226 leukemia = tested on: RPMI-8226 leukemia
T-47D breast = tested on: T-47D breast
BT-549 breast = tested on: BT-549 breast
U251 CNS = tested on: U251 CNS
NCI-H522 lung = tested on: NCI-H522 lung
HS 578T breast = tested on: HS 578T breast
HCT-116 colon = tested on: HCT-116 colon
MDA-MB-231 breast = tested on: MDA-MB-231 breast
UACC-257 melanoma = tested on: UACC-257 melanoma
UO-31 renal = tested on: UO-31 renal
SF-268 CNS = tested on: SF-268 CNS
SNB-19 CNS = tested on: SNB-19 CNS
MCF7 breast = tested on: MCF7 breast
ACHN renal = tested on: ACHN renal
SF-295 CNS = tested on: SF-295 CNS
K-562 leukemia = tested on: K-562 leukemia
MALME-3M melanoma = tested on: MALME-3M melanoma
HL-60(TB) leukemia = tested on: HL-60(TB) leukemia
PC-3 prostate = tested on: PC-3 prostate
KM12 colon = tested on: KM12 colon
SN12C renal = tested on: SN12C renal
NCI/ADR-RES ovarian = tested on: NCI/ADR-RES ovarian
M14 melanoma = tested on: M14 melanoma
HT29 colon = tested on: HT29 colon
SK-MEL-2 melanoma = tested on: SK-MEL-2 melanoma
MOLT-4 leukemia = tested on: MOLT-4 leukemia
RXF 393 renal = tested on: RXF 393 renal
NCI-H460 lung = tested on: NCI-H460 lung
A549 NSCLC = tested on: A549 NSCLC
LOX IMVI melanoma = tested on: LOX IMVI melanoma
SR leukemia = tested on: SR leukemia
IGROV1 ovarian = tested on: IGROV1 ovarian
OVCAR-4 ovarian = tested on: OVCAR-4 ovarian
HOP-92 NSCLC = tested on: HOP-92 NSCLC
CCRF-CEM leukemia = tested on: CCRF-CEM leukemia
SK-OV-3 ovarian = tested on: SK-OV-3 ovarian
SW-620 colon = tested on: SW-620 colon
TK-10 renal = tested on: TK-10 renal
HOP-62 NSCLC = tested on: HOP-62 NSCLC
MDA-MB-435 = tested on: MDA-MB-435
EKVX NSCLC = tested on: EKVX NSCLC
SK-MEL-5 melanoma = tested on: SK-MEL-5 melanoma
NCI-H23 lung = tested on: NCI-H23 lung
COLO 205 colon = tested on: COLO 205 colon
SF-539 CNS = tested on: SF-539 CNS
HCC-2998 colon = tested on: HCC-2998 colon
UACC-62 melanoma = tested on: UACC-62 melanoma
HCT-15 colon = tested on: HCT-15 colon
DU-145 prostate = tested on: DU-145 prostate
MDA-N = tested on: MDA-N
OVCAR-8 ovarian = tested on: OVCAR-8 ovarian
OVCAR-5 ovarian = tested on: OVCAR-5 ovarian
NCI-H226 lung = tested on: NCI-H226 lung
SNB-75 CNS = tested on: SNB-75 CNS

Measured: TGI

CCOC(=O)Nc1ccc(S(=O)(=O)Nn2cnnc2)cc1
77.4 µM: OVCAR-3 ovarian
74.5 µM: HCC-2998 colon
96.2 µM: A498 renal
49.7 µM: MDA-MB-435
65.1 µM: SF-539 CNS
94.3 µM: RPMI-8226 leukemia
77.9 µM: K-562 leukemia
73.9 µM: MDA-N
73.4 µM: OVCAR-4 ovarian
59.9 µM: HT29 colon
not listed: NCI-H226 lung | SNB-75 CNS
> 100 µM: all other assays above

O=C(O)/C(Cc1cn[nH]n1)=N\O
not listed: HCC-2998 colon
> 100 µM: all other assays above
